Measured values: US20100189683A1, “Pulsatile Dosing of Gossypol for Treatment of Disease” (Ascenta Therapeutics, Inc., priority 2008, published 2010)
Marks after values point to notes of the source that are not given here.

Test system: patients with advanced cancer
Test: Clinical efficacy (stable disease for 60 days or more) of (−)-gossypol by dosing schedule
Type: in vivo, human
Experimental: Following (−)-gossypol administration to patients with advanced cancer, clinical efficacy (e.g., patients having stable disease for 60 days or more) was monitored according to the following dosing schedules: “Daily” dosing: 5 to 60 mg/day of (−)-gossypol on 21 days per 28 day cycle; “BID×3d” dosing: 30 to 80 mg BID of (−)-gossypol on 3 consecutive days (e.g., Monday-Tuesday-Wednesday) repeated every other week per 28 day cycle; and “Weekly” dosing: 80 to 200 mg of (−)-gossypol once weekly per 28 day cycle. […] Tumor types represented in this study included: non-small cell lung cancer, non-Hodgkin lymphoma, chronic lymphocytic leukemia/small lymphocytic lymphoma, colon cancer, breast cancer, small cell lung cancer, head and neck cancer, sarcoma, hepatocellular cancer, pancreatic cancer, esophageal cancer, cholangiocarcinoma, carcinoid/neuroendocrine cancer, Hodgkin's lymphoma, endometrial cancer, adrenal cancer, melanoma, gastrointestinal stromal tumor, renal cancer, bladder cancer, and ovarian cancer.

Structure (SMILES): Cc1cc2c(C(C)C)c(O)c(O)c(C=O)c2c(O)c1-c1c(C)cc2c(C(C)C)c(O)c(O)c(C=O)c2c1O [(−)-gossypol]
- Median # (%) of patients with stable disease ≧60 days (BID × 3 d, N = 21): 6 (24) # (%)
- Median duration of days of stable disease (range) (BID × 3 d, N = 21): 180 (72-443) days
- Median # (%) of patients with stable disease ≧60 days (Daily, N = 38): 6 (16) # (%)
- Median duration of days of stable disease (range) (Daily, N = 38): 82 (56-341) days
- Median # (%) of patients with stable disease ≧60 days (Weekly, N = 12): 2 (13) # (%)
- Median duration of days of stable disease (range) (Weekly, N = 12): 69 (58-80) days
- Median duration of days of stable disease (pulsatile dosing (BID×3d) as compared to continuous daily dosing): longer median duration of days of stable disease
